From article PMC11003480, “Promising inhibition of diabetes-related enzymes and antioxidant properties of Ptilostemon casabonae leaves extract” (Journal of Enzyme Inhibition and Medicinal Chemistry, 2023)

Tests used:
[1] = molecular target: Saccharomyces cerevisiae α-glucosidase; test: α-Glucosidase inhibition assay (pNPG substrate); format: biochemical; settings: for α-Glucosidase Mode of inhibition: Lineweaver-Burk plot; for equilibrium constant for binding with the enzyme-substrate complex (KIS): from intercepts (1/Vmax) versus inhibitor concentration; for equilibrium constant for binding with the free enzyme (KI): from slope (Km/Vmax) versus inhibitor concentration
Experimental: The concentrations of extract required to give 50% inhibition of enzyme activity (IC50) were determined. […] The Lineweaver-Burk double reciprocal plot was used to determine the mode of α-glucosidase inhibition by performing assays at different concentrations of substrate and extract or compound. Grafit 7 (Erithacus, East Grinstead, UK) was used as data analysis software. α-Glucosidase inhibitory activity was analysed following the method described by Delogu et al.[15]. […] It was first incubated for 15 min at 37 °C. Then, 20 µL of p-nitrophenyl α-D-glucopyranoside solution (pNPG, 5 mM) was added. After further 15 min of incubation at 37 °C, the reaction was stopped by adding 50 μL of 0.2 M sodium carbonate solution. α-Glucosidase activity was determined with a 96-well microplate reader by measuring the absorbance at 405 nm. The mode of inhibition was determined, and the equilibrium constant for binding with the enzyme–substrate complex (KIS) was obtained from the vertical intercepts plotted versus inhibitor concentration.

[2] = system: Saccharomyces cerevisiae α-glucosidase; parameters: method as in PMID 25805337; settings: cited from earlier work
[3] = Ferric reducing antioxidant power assay (FRAP); settings: ferrous equivalents; 4 min, absorbance 593 nm
Experimental: Ferric reducing antioxidant power assay (FRAP) was conducted as previously described, with slight modifications. An amount of 10 µL of the extract was mixed with 2 ml of the TPTZ–ferric solution and than incubated for 4 min at room temperature in the dark. The absorbance was read at 593 nm and the result was expressed as ferrous equivalents (FE; mg Fe^2+ equivalents/mL solution). Ascorbic acid was used as reference compound.

[4] = ABTS radical scavenging activity; settings: 50% reduction of absorbance at 734 nm after 1 min
Experimental: Briefly, the reaction between the reduced ABTS (7 mM) with potassium persulfate (2.45 mM) in an aqueous solution at room temperature for 24 h, was performed to produce free radical ABTS^.+. Then, different concentrations of extract (10 μL) were added to 1 ml of ABTS^.+, and the absorbance at 734 nm was recorded after 1 min. The activity was expressed as the concentration of sample necessary to give a 50% reduction in the original absorbance (EC50).

α-Glucosidase IC50 [1]	α-Glucosidase Mode of inhibition [1]	equilibrium constant for binding with the enzyme-substrate complex (KIS) [1]	Compound	further results
36.64 ± 0.07 µg/mL	Uncompetitive	69.4 µg/mL	O=C(/C=C/c1ccc(O)c(O)c1)O[C@@H]1C[C@](OC(=O)/C=C/c2ccc(O)c(O)c2)(C(=O)O)C[C@@H](O)[C@H]1O [1,5-Dicaffeoylquinic acid (9), 1,5-Dicaffeoylquinic acid]	–
3.88 ± 1.48 µg/mL	Mixed	19.6 µg/mL	O=c1cc(-c2ccc(O)cc2)oc2cc(O)cc(O)c12 [Apigenin (23), Apigenin]	α-Glucosidase Mode of inhibition ([1]; listed as apigenin): mixed-type inhibition; equilibrium constant for binding with the free enzyme (KI) [1]: 6.5 µg/mL
20.54 ± 4.45 µg/mL	Mixed	80.2 µg/mL	C[C@@H]1O[C@@H](OC[C@H]2O[C@@H](Oc3c(-c4ccc(O)c(O)c4)oc4cc(O)cc(O)c4c3=O)[C@H](O)[C@@H](O)[C@@H]2O)[C@H](O)[C@H](O)[C@H]1O [Rutin (4), Quercetin 3-O-rutinoside (Rutin)]	α-Glucosidase Mode of inhibition ([1]; listed as rutin): mixed-type inhibition; equilibrium constant for binding with the free enzyme (KI) [1]: 9.3 µg/mL

Continued, molecule first:

Compound	α-Glucosidase IC50 [1]	α-Glucosidase Mode of inhibition [1]	equilibrium constant for binding with the enzyme-substrate complex (KIS) [1]	further results
O=C(/C=C/c1ccc(O)c(O)c1)O[C@@H]1CC(O)(C(=O)O)C[C@@H](OC(=O)/C=C/c2ccc(O)c(O)c2)C1O (stereo partly shown) [3,5-dicaffeoylquinic acid, 3,5-Dicaffeoylquinic acid]	–	–	–	α-glucosidase inhibition (in words) [2]: able to inhibit this enzyme
O=C(/C=C/c1ccc(O)c(O)c1)O[C@H]1[C@H](O)C[C@](O)(C(=O)O)C[C@H]1OC(=O)/C=C/c1ccc(O)c(O)c1 [4,5-dicaffeoylquinic acid]	–	–	–	α-glucosidase inhibition (in words) [2]: able to inhibit this enzyme
O=C1O[C@H]([C@@H](O)CO)C(O)=C1O [Ascorbic acid]	–	–	–	FRAP [3]: 1.81 ± 0.13 mg FE/mL
O=C(/C=C/c1ccc(O)c(O)c1)O[C@@H]1C[C@](O)(C(=O)O)C[C@@H](O)[C@H]1O [Chlorogenic acid (1), 5-O-Caffeoylquinic acid (Chlorogenic acid)]	>100 µg/mL	–	–	α-glucosidase inhibitory activity (in words) [1]: no inhibitory activity
Cc1c(C)c2c(c(C)c1O)CCC(C)(C(=O)O)O2 (stereo not shown) [Trolox, 6-hydroxy-2,5,7,8-tetramethylchromane-2-carboxylic acid]	–	–	–	ABTS EC50 [4]: 3.4 ± 0.3 µg/mL
